{"source": "patent US20060141013A1", "about": "“Lysine mixture and apparatus and method for administering lysine” (priority 2002, published 2006)", "key": {"[1]": {"conditions": "water @ 20 °C; cited from earlier work"}, "[2]": {"assay": "maximum amount of L-lysine capable of being dissolved in water", "assay_type": "physicochemical", "conditions": "water @ 20 °C", "method": "Various different concentrations of L-lysine may be used in the mixture. In one embodiment, L-lysine is initially dissolved in water at a concentration of 500 mg/ml. The L-lysine/water solution is then mixed with the palatable base substance at a 1:1 ratio (i.e., 50% solution and 50% palatable base), resulting in an L-lysine concentration of 250 mg/ml. Given that the current recommended dosage of L-lysine is 250 to 1000 mg daily, two 2 ml doses may be administered daily. Alternatively, a single 4 ml dose may be administered (if the cat is willing to consume the 4 ml dose). It should be noted, however, that the underlying principles of the invention are not confined to any particular concentration of L-lysine or any particular dosage. For example, any concentration up to the maximum amount capable of being dissolved in water may be used (e.g., 64.2 gm/100 ml water @ 20 °C, or approximately 650 mg/ml). Moreover, the L-lysine solution may then be added to the palatable base at various different ratios, based on the desired L-lysine concentration and/or the desired consistency of the final mixture (e.g., 2:1, 3:1, 1:2, . . . etc)."}, "[3]": {"tested_on": "Feline herpesvirus type I (FHV-1)", "conditions": "cats maintained on oral L-lysine; cited from earlier work"}}}
{"smiles": "NCCCC[C@H](N)C(=O)O", "note": "[L-lysine]", "values": [{"measurement": "maximum amount capable of being dissolved in water", "setting": "[1]", "value": 64.2, "unit": "gm/100 ml"}, {"measurement": "maximum amount capable of being dissolved in water (approximate concentration)", "setting": "[2]", "value": "approximately 650 mg/ml"}, {"measurement": "severity and duration of infection if signs of the virus reoccur", "setting": "[3]", "value": "milder and of a shorter duration"}, {"measurement": "time between ocular viral flare-ups", "setting": "[3]", "value": "longer period of time between ocular viral flare-ups"}]}
